Assays:
[1] = test system: experimental autoimmune neuritis (EAN) rat model; assay: Preventive administration, pain threshold of EAN rat model; assay type: in vivo; details: preventive continuous administration into the subarachnoid space by Micro Infusion Pump from immunization with P2 peptide-adjuvant; male LEW/CrlCrlj rat; FIG. 2
From the text: (§1) The effect of P2X4 receptor antagonist on neuropathic pain was examined using an experimental autoimmune neuritis (EAN) rat model (Examples 3 and 4), which has been used as an experimental model for Guillain-Barré syndrome ([…]).
Six-week-old male LEW/CrlCrlj rat was acclimatized for about one week, and an indwelling polystyrene catheter with a 0.30 mm outside diameter was placed into the subarachnoid space. Three days or more after indwelling of the catheter for administration into the subarachnoid space, the rat was anesthetized with isoflurane, and an adjuvant or P2 peptide-adjuvant solution was administered by intradermal tale base injection in an amount of 80 μg/80 μL/rat. The compound A was continuously administered by Micro Infusion Pump (Primetech). The pump was placed at the same time of administration of P2 peptide-adjuvant.

[2] = test system: experimental autoimmune neuritis (EAN) rat model; assay: Therapeutic administration, pain threshold of EAN rat model; assay type: in vivo; details: therapeutic administration into the subarachnoid space from thirteen days after immunization (average manifestation score 2 or more); male LEW/CrlCrlj rat; FIG. 3
From the text: as §1
Six-week-old male LEW/CrlCrlj rat was acclimatized for about one week, and an indwelling polystyrene catheter with a 0.30 mm outside diameter was placed into the subarachnoid space. Three days or more after indwelling of the catheter for administration into the subarachnoid space, the rat was anesthetized with isoflurane, and an adjuvant or P2 peptide-adjuvant solution was administered by intradermal tale base injection in an amount of 80 μg/80 μL/rat. Micro Infusion Pump was simultaneously placed into the back of the rat, and administration of the vehicle into the subarachnoid space was initiated. After immunization, symptom was observed (Table 2), and change of pain threshold was observed.

Structure (SMILES): O=C1CC(=O)N(c2cccc(-c3nnn[nH]3)c2)c2ccc3ccccc3c2N1.[K] [Compound A, 5-[3-(1H-tetrazol-5-yl)phenyl]-1H-naphtho[1,2-b][1,4]diazepine-2,4(3H,5H)-dione potassium salt]
- influence on pain threshold (allodynia) [1]: suppress pains in initial and later manifestations of the disease
- influence on pain threshold (analgesic effect) [2]: significant analgesic effect on pain in later manifestation of the disease
